The source of these data is patent publication US11066378B2, “Caffeic acid derivatives for anti-angiogenesis” (Taipei Medical University, priority 2015, dated 2021).

The structures appear in SMILES notation.

The subject of one assay is HUVECs. Description: Tube formation analysis. Particulars: 8 h, 5% FBS, 0.5, 1 and 2 μM, dose-dependent, FIG. 4. The assay is classed as cell-based, human. The procedure:
The experiments were performed as described previously (Pan et al., 2010). The HUVECs (lx 10^4 cells/well) were seeded on Matrigel-coated wells of a 96-well plate and then incubated with various concentrations (0.5, 1, and 2 μM) of K20E for 8 h. After that, the capillary-like tube formation was observed by light microscopy at 40-fold magnification, and the tube lengths of the capillary mesh were measured to evaluate anti-angiogenic effect of K20E. The tube length of the control group (treated with 5% FBS alone) was defined as 100%.

In assay [1] the test system is angiogenesis in chick chorioallantoic membrane. Description: Chick chorioallantoic membrane (CAM) assay. The conditions noted are these: ex vivo supplementary data, dose-dependent.
The subject of another assay is VEGFR-2. Description: VEGFR-2 expression in HUVECs (immunoblot). The assay is classed as cell-based, human. The conditions noted are these: FIG. 6A. The procedure:
(§1) The experiments were carried out as described previously (Pan et al., 2010). Briefly, the cells (5×10^5 cells/well) seeded on the 6-well plates and incubated with different concentrations (0.5, 1, and 2 μM) of K20E under normal culture condition for 15 min or 24 h to detect the expression levels of the phosphorylated proteins and the total proteins, respectively. The treated cells were harvested and lysed by using PROPREP® protein extraction solution (#17081; iNtRON Biotechnology, Gyeonggi-Do, South Korea). The cell lysates were further centrifuged at 13000×g at 4° C. for 10 min to collect the supernatants for sodium dodecyl sulfate-polyacrylamide gel electrophoresis (SDS-PAGE). Protein concentration was measured by the Bio-Rad protein assay kit (Bio-Rad, Hercules, Calif., USA) according to the manufacturer's instructions. Aliquots containing 30 μg protein were electrophoresed using 10% slab SDS-PAGE gels and then transferred to PVDF membranes (Immobilon-P™; Millipore, Bedford, Mass., USA). […] The luminescence signal was acquired by Fujifilm LAS-4000 system (San Leandro, Calif., USA) and quantified by using MultiGauge software (v3.0; Fujifilm). […] The relative protein expression was calculated according to the values of the control group (treated with 5% or 10% FBS alone) as 100%.
Background: A western blot detects proteins with antibodies after separation by electrophoresis.

For assay [2], the system named is LLC1 lung carcinoma tumor. Description: Lewis lung carcinoma-bearing mouse model. The assay is classed as in vivo. Particulars: LLC1-bearing mice, 2-week treatment, 4 and 8 mg/kg/day intraperitoneal, FIG. 1A. The text has this:
The experimental design and procedure according to the method reported by our previous study with minor modification (Liu et al., 2013). Briefly, male C57BL/6 mice (average of 8-week-old) were purchased from the BioLASCO (Taipei, Taiwan) and housed in a 12-h light/dark cycles with free access to food and water. All animal care followed the institutional animal ethical guidelines of ChinaMedical University (Taichung, Taiwan). After 1 week adaptation, the mice were divided randomly into three groups (n=6/group): Group 1 (control group; treatment with normal saline), Group 2 (treatment with 4 mg/kg body weight/day of […]), and Group 3 (treatment with 8 mg/kg body weight/day of […]). At first, the LLC1 lung cancer cells (6×10^5 cells in 100 μL of total volume) were injected subcutaneously into the back skin of mice to induce lung carcinoma xenografts. Two weeks later, the tumor-bearing mice began to receive the treatments according to experiment design (normal saline or […] with different dosages) by intraperitoneal injection once a day for two weeks. At the end of the study, the tumor masses were harvested to photograph and weighted.

For the next assay, the system named is VEGF. The assay can be described thus: VEGF level in LLC1 cells (immunoblot) and culture medium (ELISA). Format: cell-based, mouse. Particulars: 24 h, FIG. 5. The procedure: as §1, with “100%. […]” for “100%.”
For another assay, the system named is p53-p21 pathway. The assay can be described thus: p53 and p21 protein levels in HUVECs (immunoblot). The assay is classed as cell-based, human. Particulars: FIG. 7. The procedure:
as §1

The subject of assay [3] is MEK1/2-ERK1/2 and AKT-mTOR signaling pathway. The assay can be described thus: VEGFR-2 downstream signaling cascades in HUVECs (immunoblot). The assay is classed as cell-based, human. Particulars: activation level rather than total protein level. The procedure: as §1
The test system of assay [4] is gelatinases (MMP-2 and MMP-9). The assay can be described thus: Gelatinase protein (immunoblot) and activity (gelatin zymography) in HUVECs. The assay is classed as cell-based, human. The conditions noted are these: FIG. 6D. The procedure: as §1, with “instructions.” for “instructions. Aliquots containing 30 μg protein were electrophoresed using 10% slab SDS-PAGE gels and then transferred to PVDF membranes (Immobilon-P™; Millipore, Bedford, Mass., USA).”
The experiments were carried out according to the procedure of previous study with minor modification (Chen et al., 2012). […] The intensity of the digested bands was quantified by using Multi Gauge software. […]

Consider `COC(=O)/C=C/c1cc(OC(C)=O)c2c(c1)[C@H](C(=O)OC)[C@@H](c1ccc(OC(C)=O)c(OC(C)=O)c1)O2` [K20E], for which the “tube formation of the HUVECs on Matrigel” value in the assay with HUVECs is given as “significantly suppressed”. In addition, in assay [1], the “angiogenesis in CAM assay” value is “effectively reduce the angiogenesis”. The “expression level of intracellular and surface VEGFR-2” value in the assay with VEGFR-2 is “markedly down-regulated”. In assay [2], the tumor mass entry is on record as “dose-dependently reduced”. For the same compound, the “intracellular level of VEGF protein” value with VEGF (LLC1 cancer cells, immunoblot) was “dose-dependently decrease”. In addition, the “secreted level of VEGF protein” value with VEGF (LLC1 culture medium, ELISA) is recorded as “dose-dependently decrease”. For the same compound, in the assay with p53-p21 pathway, the “expression level of p21 protein” value is “dose-dependently increased” and the “expression level of p53 protein” value is listed as “dose-dependently increased”. Further, the MEK1/2-ERK1/2 signaling entry in assay [3] (FIG. 6B) is “suppressed”. In addition, the AKT-mTOR signaling pathway result in assay [3] (FIG. 6C) is “suppressed”. In addition, the “activity levels of gelatinases (MMP-2 and MMP-9)” value in assay [4] (gelatin zymography) is reported as “evidently decreased”. Further, the “protein levels of gelatinases (MMP-2 and MMP-9)” value in assay [4] (immunoblot) is “evidently decreased”.
